From ChEMBL document CHEMBL3751693, “Synthesis, antimicrobial evaluation and molecular modeling of 5-hydroxyisoquinolinium salt series; the effect of the hydroxyl moiety” (Bioorg Med Chem, 2016)

Key:
[1] = tested on: Aspergillus fumigatus; assay: Antimicrobial activity against Aspergillus fumigatus 231 after 48 hrs by spectrophotometry; type: functional; settings: Aspergillus fumigatus, 231, 48 h
[2] = tested on: Staphylococcus aureus; assay: Antimicrobial activity against clinical isolate methicillin-resistant Staphylococcus aureus H 599608 after 48 hrs; type: functional; settings: H 599608, 48 h
[3] = tested on: Staphylococcus aureus; assay: Antimicrobial activity against clinical isolate methicillin-resistant Staphylococcus aureus H 599608 after 24 hrs; type: functional; settings: H 599608, 24 h
[4] = tested on: Pseudomonas aeruginosa; assay: Antimicrobial activity against clinical isolate Pseudomonas aeruginosa CCM 1961 after 72 hrs; type: functional; settings: CCM 1961, 72 h
[5] = tested on: Nakaseomyces glabratus; assay: Antimicrobial activity against Candida glabrata 20/I after 48 hrs by spectrophotometry; type: functional
[6] = tested on: Trichophyton mentagrophytes; assay: Antimicrobial activity against Trichophyton mentagrophytes 445 after 72 hrs by spectrophotometry; type: functional; settings: Trichophyton mentagrophytes, 445, 72 h
[7] = tested on: Trichophyton mentagrophytes; assay: Antimicrobial activity against Trichophyton mentagrophytes 445 after 120 hrs by spectrophotometry; type: functional; settings: Trichophyton mentagrophytes, 445, 120 h
[8] = tested on: Lichtheimia corymbifera; assay: Antimicrobial activity against Absidia corymbifera 272 after 48 hrs by spectrophotometry; type: functional; settings: Lichtheimia corymbifera, 272, 48 h
[9] = tested on: Pseudomonas aeruginosa; assay: Antimicrobial activity against clinical isolate Pseudomonas aeruginosa CCM 1961 after 120 hrs; type: functional; settings: CCM 1961, 120 h
[10] = tested on: Staphylococcus epidermidis; assay: Antimicrobial activity against clinical isolate Staphylococcus epidermidis H 696608 after 24 hrs; type: functional; settings: H 696608, 24 h
[11] = tested on: Staphylococcus aureus; assay: Antimicrobial activity against clinical isolate Staphylococcus aureus CCM 451608 after 24 hrs; type: functional; settings: CCM 451608, 24 h
[12] = tested on: Staphylococcus epidermidis; assay: Antimicrobial activity against clinical isolate Staphylococcus epidermidis H 696608 after 48 hrs; type: functional; settings: H 696608, 48 h
[13] = tested on: Klebsiella pneumoniae; assay: Antimicrobial activity against clinical isolate ESBL-Klebsiella pneumoniae J 1436808 after 24 hrs; type: functional; settings: J 1436808, 24 h
[14] = Cytotoxicity against CHOK1 cells after 24 hrs by MTT assay; type: cell-based; settings: Cricetulus griseus, CHO-K1, 24 h
[15] = tested on: Candida albicans; assay: Antimicrobial activity against Candida albicans ATCC 44859 after 24 hrs by spectrophotometry; type: functional; settings: ATCC 44859, 24 h
[16] = tested on: Escherichia coli; assay: Antimicrobial activity against clinical isolate Escherichia coli CCM 4517 after 48 hrs; type: functional; settings: CCM 4517, 48 h
[17] = tested on: Nakaseomyces glabratus; assay: Antimicrobial activity against Candida glabrata 20/I after 24 hrs by spectrophotometry; type: functional
[18] = tested on: Candida tropicalis; assay: Antimicrobial activity against Candida tropicalis 156 after 24 hrs by spectrophotometry; type: functional; settings: Candida tropicalis, 156, 24 h
[19] = tested on: Klebsiella pneumoniae; assay: Antimicrobial activity against clinical isolate Klebsiella pneumoniae D 1175008 after 48 hrs; type: functional; settings: D 1175008, 48 h
[20] = tested on: Aspergillus fumigatus; assay: Antimicrobial activity against Aspergillus fumigatus 231 after 24 hrs by spectrophotometry; type: functional; settings: Aspergillus fumigatus, 231, 24 h
[21] = tested on: Trichosporon asahii; assay: Antimicrobial activity against Trichosporon asahii 1188 after 24 hrs by spectrophotometry; type: functional; settings: Trichosporon asahii, 1188, 24 h
[22] = tested on: Klebsiella pneumoniae; assay: Antimicrobial activity against clinical isolate ESBL-Klebsiella pneumoniae J 1436808 after 48 hrs; type: functional; settings: J 1436808, 48 h
[23] = tested on: Pichia kudriavzevii; assay: Antimicrobial activity against Candida krusei E28 after 24 hrs by spectrophotometry; type: functional; settings: E28, 24 h
[24] = tested on: Enterococcus sp.; assay: Antimicrobial activity against clinical isolate Enterococcus sp. J 1436508 after 24 hrs; type: functional; settings: J 1436508, 24 h
[25] = tested on: Lichtheimia corymbifera; assay: Antimicrobial activity against Absidia corymbifera 272 after 24 hrs by spectrophotometry; type: functional; settings: Lichtheimia corymbifera, 272, 24 h
[26] = tested on: Trichosporon asahii; assay: Antimicrobial activity against Trichosporon asahii 1188 after 48 hrs by spectrophotometry; type: functional; settings: Trichosporon asahii, 1188, 48 h
[27] = tested on: Escherichia coli; assay: Antimicrobial activity against clinical isolate Escherichia coli CCM 4517 after 24 hrs; type: functional; settings: CCM 4517, 24 h
[28] = tested on: Enterococcus sp.; assay: Antimicrobial activity against clinical isolate Enterococcus sp. J 1436508 after 48 hrs; type: functional; settings: J 1436508, 48 h
[29] = tested on: Klebsiella pneumoniae; assay: Antimicrobial activity against clinical isolate Klebsiella pneumoniae D 1175008 after 24 hrs; type: functional; settings: D 1175008, 24 h
[30] = tested on: Candida tropicalis; assay: Antimicrobial activity against Candida tropicalis 156 after 48 hrs by spectrophotometry; type: functional; settings: Candida tropicalis, 156, 48 h
[31] = tested on: Candida albicans; assay: Antimicrobial activity against Candida albicans ATCC 44859 after 48 hrs by spectrophotometry; type: functional; settings: ATCC 44859, 48 h
[32] = tested on: Staphylococcus aureus; assay: Antimicrobial activity against clinical isolate Staphylococcus aureus CCM 451608 after 48 hrs; type: functional; settings: CCM 451608, 48 h
[33] = tested on: Pichia kudriavzevii; assay: Antimicrobial activity against Candida krusei E28 after 48 hrs by spectrophotometry; type: functional; settings: E28, 48 h

## CCCCCCCCCCCCCCCCCC[n+]1ccc2ccccc2c1
[1]
  MFC: 63 µM
  MIC: 63 µM
[2]
  MBC: 2 µM
  MIC: 0.5 µM
[3]
  MIC: 0.5 µM
[4]
  MIC: 125 µM
[5]
  MFC: 2 µM
  MIC: 1 µM
[6]
  MIC: 2 µM
[7]
  MFC: 31 µM
  MIC: 2 µM
[8]
  MFC: 63 µM
  MIC: 7.8 µM
[9]
  MBC: 250 µM
  MIC: 125 µM
[10]
  MIC: 0.5 µM
[11]
  MIC: 0.5 µM
[12]
  MBC: 2 µM
  MIC: 0.5 µM
[13]
  MIC: 63 µM
[14]
  IC50: 6 µM
[15]
  MIC: 2 µM
[16]
  MBC: 31 µM
  MIC: 31 µM
[17]
  MIC: 1 µM
[18]
  MIC: 2 µM
[19]
  MBC: 63 µM
  MIC: 63 µM
[20]
  MIC: 63 µM
[21]
  MIC: 2 µM
[22]
  MBC: 250 µM
  MIC: 63 µM
[23]
  MIC: 2 µM
[24]
  MIC: 2 µM
[25]
  MIC: 7.8 µM
[26]
  MFC: 2 µM
  MIC: 2 µM
[27]
  MIC: 31 µM
[28]
  MBC: 2 µM
  MIC: 2 µM
[29]
  MIC: 63 µM
[30]
  MFC: 2 µM
  MIC: 2 µM
[31]
  MFC: 2 µM
  MIC: 2 µM
[32]
  MBC: 2 µM
  MIC: 0.5 µM
[33]
  MFC: 2 µM
  MIC: 2 µM

## CCCCCCCCCCCC[n+]1ccc2ccccc2c1 [LAURYL ISOQUINOLINIUM BROMIDE]
[1]
  MFC: 125 µM
  MIC: 125 µM
[2]
  MBC: 1 µM
  MIC: 0.5 µM
[3]
  MIC: 0.5 µM
[4]
  MIC: 250 µM
[5]
  MFC: 1 µM
  MIC: 0.5 µM
[6]
  MIC: 7.8 µM
[7]
  MFC: 16 µM
  MIC: 7.8 µM
[8]
  MFC: 250 µM
  MIC: 250 µM
[9]
  MBC: 250 µM
  MIC: 250 µM
[10]
  MIC: 0.5 µM
[11]
  MIC: 0.5 µM
[12]
  MBC: 1 µM
  MIC: 0.5 µM
[13]
  MIC: 63 µM
[14]
  IC50: 15 µM
[15]
  MIC: 0.5 µM
[16]
  MBC: 31 µM
  MIC: 7.8 µM
[17]
  MIC: 0.5 µM
[18]
  MIC: 0.5 µM
[19]
  MBC: 63 µM
  MIC: 16 µM
[20]
  MIC: 125 µM
[21]
  MIC: 63 µM
[22]
  MBC: 125 µM
  MIC: 63 µM
[23]
  MIC: 0.5 µM
[24]
  MIC: 7.8 µM
[25]
  MIC: 250 µM
[26]
  MFC: 63 µM
  MIC: 63 µM
[27]
  MIC: 7.8 µM
[28]
  MBC: 63 µM
  MIC: 7.8 µM
[29]
  MIC: 16 µM
[30]
  MFC: 1 µM
  MIC: 0.5 µM
[31]
  MFC: 1 µM
  MIC: 0.5 µM
[32]
  MBC: 1 µM
  MIC: 0.5 µM
[33]
  MFC: 1 µM
  MIC: 0.5 µM

## CCCCCCCCCCCCCC[n+]1ccc2ccccc2c1
[1]
  MFC: 7.8 µM
  MIC: 7.8 µM
[2]
  MBC: 1 µM
  MIC: 0.5 µM
[3]
  MIC: 0.5 µM
[4]
  MIC: 63 µM
[5]
  MFC: 3.9 µM
  MIC: 0.5 µM
[6]
  MIC: 3.9 µM
[7]
  MFC: 16 µM
  MIC: 3.9 µM
[8]
  MFC: 250 µM
  MIC: 31 µM
[9]
  MBC: 63 µM
  MIC: 63 µM
[10]
  MIC: 0.5 µM
[11]
  MIC: 0.5 µM
[12]
  MBC: 1 µM
  MIC: 0.5 µM
[13]
  MIC: 31 µM
[14]
  IC50: 9 µM
[15]
  MIC: 0.5 µM
[16]
  MBC: 3.9 µM
  MIC: 2 µM
[17]
  MIC: 0.5 µM
[18]
  MIC: 0.5 µM
[19]
  MBC: 3.9 µM
  MIC: 3.9 µM
[20]
  MIC: 7.8 µM
[21]
  MIC: 3.9 µM
[22]
  MBC: 31 µM
  MIC: 31 µM
[23]
  MIC: 0.5 µM
[24]
  MIC: 0.5 µM
[25]
  MIC: 31 µM
[26]
  MFC: 3.9 µM
  MIC: 3.9 µM
[27]
  MIC: 2 µM
[28]
  MBC: 3.9 µM
  MIC: 0.5 µM
[29]
  MIC: 3.9 µM
[30]
  MFC: 1 µM
  MIC: 0.5 µM
[31]
  MFC: 1 µM
  MIC: 0.5 µM
[32]
  MBC: 1 µM
  MIC: 0.5 µM
[33]
  MFC: 1 µM
  MIC: 0.5 µM

## CCCCCCCCCCCCCC[N+](C)(C)Cc1ccccc1
[1]
  MFC: 125 µM
  MIC: 16 µM
[2]
  MBC: 3.9 µM
  MIC: 2 µM
[3]
  MIC: 2 µM
[4]
  MIC: 16 µM
[5]
  MFC: 125 µM
  MIC: 7.8 µM
[6]
  MIC: 16 µM
[7]
  MFC: 16 µM
  MIC: 16 µM
[8]
  MFC: 125 µM
  MIC: 31 µM
[9]
  MBC: 63 µM
  MIC: 16 µM
[10]
  MIC: 1 µM
[11]
  MIC: 1 µM
[12]
  MBC: 1 µM
  MIC: 1 µM
[13]
  MIC: 7.8 µM
[14]
  IC50: 24 µM
[15]
  MIC: 7.8 µM
[16]
  MBC: 7.8 µM
  MIC: 7.8 µM
[17]
  MIC: 7.8 µM
[18]
  MIC: 3.9 µM
[19]
  MBC: 7.8 µM
  MIC: 7.8 µM
[20]
  MIC: 7.8 µM
[21]
  MIC: 31 µM
[22]
  MBC: 7.8 µM
  MIC: 7.8 µM
[23]
  MIC: 3.9 µM
[24]
  MIC: 2 µM
[25]
  MIC: 31 µM
[26]
  MFC: 125 µM
  MIC: 31 µM
[27]
  MIC: 7.8 µM
[28]
  MBC: 7.8 µM
  MIC: 2 µM
[29]
  MIC: 7.8 µM
[30]
  MFC: 125 µM
  MIC: 3.9 µM
[31]
  MFC: 125 µM
  MIC: 7.8 µM
[32]
  MBC: 3.9 µM
  MIC: 1 µM
[33]
  MFC: 125 µM
  MIC: 3.9 µM
